Each block holds one compound with its values, some of them ahead of it.
Columns and labels:
[1] = Cytotoxicity against human HepAD38 cells assessed as reduction in cell viability incubated for 65 hrs by EZ-Cytox cell viability assay; format: cell-based
Hepatitis B virus [2] = assay: Antiviral activity in HBV infected in human HepAD38 cells assessed as reduction in viral replication incubated for 65 hrs by RT-PCR analysis; format: functional, organism-based; conditions: HePAD38, 65 h
Hepatitis B virus [3] = assay: Antiviral activity in HBV infected in human HepG2.2.15 cells assessed as reduction in viral replication incubated for 5 days by qPCR analysis; format: functional, organism-based; conditions: HepG2.2.15, 120 h
[4] = Half life in Sprague-Dawley rat at 5 mg/kg, po measured upto 24 hrs by LC/MS/MS analysis; format: ADME, organism-based; conditions: in vivo
[5] = Half life in Sprague-Dawley rat at 5 mg/kg, iv measured upto 24 hrs by LC/MS/MS analysis; format: ADME, organism-based; conditions: in vivo
[6] = Clearance in Sprague-Dawley rat at 5 mg/kg, iv measured upto 24 hrs by LC/MS/MS analysis; format: ADME, organism-based; conditions: in vivo
Cytochrome P450 3A4 = Cytochrome P450 3A4 (Homo sapiens, UniProt P08684); assay: Inhibition of human CYP3A4 using […] as substrate by LC/MS/MS analysis; format: ADME
Sequence of Cytochrome P450 3A4 (P08684 whole entry): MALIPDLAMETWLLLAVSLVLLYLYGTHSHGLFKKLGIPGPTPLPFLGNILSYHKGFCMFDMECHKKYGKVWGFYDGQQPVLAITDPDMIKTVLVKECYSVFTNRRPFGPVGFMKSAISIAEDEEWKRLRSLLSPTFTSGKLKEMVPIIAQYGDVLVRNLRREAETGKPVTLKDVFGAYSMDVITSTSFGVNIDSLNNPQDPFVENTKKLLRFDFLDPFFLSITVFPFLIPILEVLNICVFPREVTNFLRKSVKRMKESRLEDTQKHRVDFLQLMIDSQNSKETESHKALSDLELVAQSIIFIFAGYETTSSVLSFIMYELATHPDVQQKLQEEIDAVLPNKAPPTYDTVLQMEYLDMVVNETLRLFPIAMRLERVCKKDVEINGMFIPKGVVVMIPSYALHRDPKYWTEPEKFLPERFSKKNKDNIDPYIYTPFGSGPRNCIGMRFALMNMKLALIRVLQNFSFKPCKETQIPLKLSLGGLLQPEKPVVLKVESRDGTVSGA

[7] = molecular target: T1, Voltage-gated inwardly rectifying potassium channel KCNH2 (Homo sapiens, UniProt Q12809); assay: Inhibition of human ERG by competitive fluorescence polarization assay
T1 sequence (Q12809 whole entry): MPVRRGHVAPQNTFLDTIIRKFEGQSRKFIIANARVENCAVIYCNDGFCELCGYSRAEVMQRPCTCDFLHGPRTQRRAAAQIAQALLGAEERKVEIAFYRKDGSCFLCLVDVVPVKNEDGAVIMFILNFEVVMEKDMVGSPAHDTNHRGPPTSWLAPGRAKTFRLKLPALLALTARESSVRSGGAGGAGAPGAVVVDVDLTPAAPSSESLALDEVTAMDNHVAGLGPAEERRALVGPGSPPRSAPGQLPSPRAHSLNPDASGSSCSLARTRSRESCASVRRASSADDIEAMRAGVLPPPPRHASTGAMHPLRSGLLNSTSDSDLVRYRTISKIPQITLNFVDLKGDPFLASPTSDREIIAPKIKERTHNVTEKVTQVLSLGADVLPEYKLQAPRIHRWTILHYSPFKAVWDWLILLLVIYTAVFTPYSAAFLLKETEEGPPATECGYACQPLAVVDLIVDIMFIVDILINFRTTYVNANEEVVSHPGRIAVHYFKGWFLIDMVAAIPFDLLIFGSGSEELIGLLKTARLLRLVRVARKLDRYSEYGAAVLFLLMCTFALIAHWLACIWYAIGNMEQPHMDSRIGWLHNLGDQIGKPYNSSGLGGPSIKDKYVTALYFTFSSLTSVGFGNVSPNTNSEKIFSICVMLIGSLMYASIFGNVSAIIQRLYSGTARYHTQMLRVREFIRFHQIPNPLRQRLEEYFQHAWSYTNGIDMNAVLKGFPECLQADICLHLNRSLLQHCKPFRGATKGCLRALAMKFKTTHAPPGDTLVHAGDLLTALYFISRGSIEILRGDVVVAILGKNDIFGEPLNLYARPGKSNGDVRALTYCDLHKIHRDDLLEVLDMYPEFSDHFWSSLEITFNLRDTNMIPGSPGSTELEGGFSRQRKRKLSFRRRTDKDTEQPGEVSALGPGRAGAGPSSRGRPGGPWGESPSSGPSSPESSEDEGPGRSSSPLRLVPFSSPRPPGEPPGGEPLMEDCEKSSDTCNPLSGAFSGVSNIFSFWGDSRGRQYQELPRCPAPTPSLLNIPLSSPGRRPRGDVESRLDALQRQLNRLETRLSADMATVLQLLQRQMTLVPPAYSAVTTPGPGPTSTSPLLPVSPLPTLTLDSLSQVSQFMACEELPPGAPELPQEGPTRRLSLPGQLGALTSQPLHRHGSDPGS

[8] = Stability in rat liver microsomes assessed as compound remaining at 1 uM incubated for 30 mins by LC/MS/MS analysis; format: ADME, Microsome; conditions: read-out: Stability
Cytochrome P450 2C9 = Cytochrome P450 2C9 (Homo sapiens, UniProt P11712); assay: Inhibition of human CYP2C9 using tolubutamide as substrate by LC/MS/MS analysis; format: ADME
Sequence of Cytochrome P450 2C9 (P11712 whole entry): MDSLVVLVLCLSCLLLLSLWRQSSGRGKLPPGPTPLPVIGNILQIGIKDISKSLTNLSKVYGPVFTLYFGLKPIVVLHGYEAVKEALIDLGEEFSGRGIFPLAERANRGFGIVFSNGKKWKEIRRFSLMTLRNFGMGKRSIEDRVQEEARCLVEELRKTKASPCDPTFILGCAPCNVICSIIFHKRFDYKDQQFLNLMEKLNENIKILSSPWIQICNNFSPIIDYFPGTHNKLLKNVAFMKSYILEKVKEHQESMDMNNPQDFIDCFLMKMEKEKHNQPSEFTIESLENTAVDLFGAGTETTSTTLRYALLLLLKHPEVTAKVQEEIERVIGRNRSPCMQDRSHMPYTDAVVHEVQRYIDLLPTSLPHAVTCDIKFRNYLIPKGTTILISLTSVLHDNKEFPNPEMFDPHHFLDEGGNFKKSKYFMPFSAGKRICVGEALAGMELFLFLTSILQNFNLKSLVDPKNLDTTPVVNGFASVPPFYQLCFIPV

Hepatitis B virus [9] = assay: Potency index, ratio of EC50 of NVR3-778 to EC50 of compound for antiviral activity in HBV infected in human HepAD38 cells assessed as reduction in viral replication incubated for 65 hrs by RT-PCR analysis; format: functional
[10] = AUClast in Sprague-Dawley rat at 5 mg/kg, po measured upto 24 hrs by LC/MS/MS analysis; format: ADME, organism-based; set-up: dose 5 mg/kg, time < 24 hr, route oral; conditions: in vivo
[11] = Stability in human liver microsomes assessed as compound remaining at 1 uM incubated for 30 mins by LC/MS/MS analysis; format: ADME, Microsome; conditions: read-out: Stability
Cytochrome P450 2C19 = Cytochrome P450 2C19 (Homo sapiens, UniProt P33261); assay: Inhibition of human CYP2C19 using S-mephenytoin as substrate by LC/MS/MS analysis; format: ADME
Sequence of Cytochrome P450 2C19 (P33261 whole entry): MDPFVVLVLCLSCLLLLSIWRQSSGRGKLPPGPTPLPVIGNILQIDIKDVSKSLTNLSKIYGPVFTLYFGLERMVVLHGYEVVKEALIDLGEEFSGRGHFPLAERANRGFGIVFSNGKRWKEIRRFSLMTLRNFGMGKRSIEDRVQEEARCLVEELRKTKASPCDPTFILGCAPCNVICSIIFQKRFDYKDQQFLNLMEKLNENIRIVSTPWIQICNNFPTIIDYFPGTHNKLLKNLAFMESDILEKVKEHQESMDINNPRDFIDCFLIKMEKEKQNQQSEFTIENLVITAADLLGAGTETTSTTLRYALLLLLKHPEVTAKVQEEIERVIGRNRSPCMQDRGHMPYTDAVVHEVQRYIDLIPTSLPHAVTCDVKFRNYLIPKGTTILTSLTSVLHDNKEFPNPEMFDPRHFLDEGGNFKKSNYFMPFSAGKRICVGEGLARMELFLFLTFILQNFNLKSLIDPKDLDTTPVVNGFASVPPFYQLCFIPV

[12] = Volume of distribution at steady state in Sprague-Dawley rat at 5 mg/kg, iv measured upto 24 hrs by LC/MS/MS analysis; format: ADME, organism-based; conditions: in vivo, read-out: Vdss
[13] = Oral bioavailability in Sprague-Dawley rat at 5 mg/kg measured upto 24 hrs by LC/MS/MS analysis; format: ADME, organism-based; conditions: in vivo
[14] = Protein binding in human plasma assessed as compound remaining at 5 uM incubated for 4 hrs by LC/MS/MS analysis; format: ADME, cell-free; conditions: read-out: PPB (converted)
[15] = Stability in rat liver microsomes assessed as half life at 1 uM incubated for 30 mins by LC/MS/MS analysis; format: ADME, Microsome
[16] = Stability in human plasma assessed as compound remaining at 5 uM incubated for 4 hrs by LC/MS/MS analysis; format: ADME, cell-free; conditions: read-out: Stability
[17] = molecular target: T1, Voltage-gated inwardly rectifying potassium channel KCNH2; assay: Inhibition of human ERG expressed in human HEK293 cells by patch clamp assay; format: cell-based
[18] = Stability in rat plasma assessed as compound remaining at 5 uM incubated for 4 hrs by LC/MS/MS analysis; format: ADME, cell-free; conditions: read-out: Stability
[19] = Protein binding in rat plasma assessed as compound remaining at 5 uM incubated for 4 hrs by LC/MS/MS analysis; format: ADME, cell-free; conditions: read-out: PPB
[20] = AUClast in Sprague-Dawley rat at 5 mg/kg, iv measured upto 24 hrs by LC/MS/MS analysis; format: ADME, organism-based; set-up: time < 24 hr, dose 5 mg/kg, route intravenous; conditions: in vivo
Cytochrome P450 1A2 = molecular target: T2, Cytochrome P450 1A2 (Homo sapiens, UniProt P05177); assay: Inhibition of human CYP1A2 using phenacetin as substrate by LC/MS/MS analysis; format: ADME
T2 sequence (P05177 whole entry): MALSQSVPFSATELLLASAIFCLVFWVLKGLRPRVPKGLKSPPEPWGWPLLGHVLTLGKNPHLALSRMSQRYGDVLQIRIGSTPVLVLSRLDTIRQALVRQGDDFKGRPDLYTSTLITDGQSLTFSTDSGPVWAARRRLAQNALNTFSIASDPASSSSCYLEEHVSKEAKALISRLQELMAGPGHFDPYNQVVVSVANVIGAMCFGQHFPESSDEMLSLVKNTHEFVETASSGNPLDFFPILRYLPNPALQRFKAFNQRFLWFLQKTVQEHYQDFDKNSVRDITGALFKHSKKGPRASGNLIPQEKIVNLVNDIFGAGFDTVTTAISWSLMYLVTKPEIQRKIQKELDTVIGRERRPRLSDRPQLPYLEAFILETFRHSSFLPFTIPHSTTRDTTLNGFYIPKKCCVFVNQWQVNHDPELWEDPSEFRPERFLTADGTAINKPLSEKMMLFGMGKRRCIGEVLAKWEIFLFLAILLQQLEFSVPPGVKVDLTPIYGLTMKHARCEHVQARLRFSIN

[21] = Cmax in Sprague-Dawley rat at 5 mg/kg, po measured upto 24 hrs by LC/MS/MS analysis; format: ADME, organism-based; set-up: dose 5 mg/kg, route oral; conditions: in vivo
[22] = AUC in Sprague-Dawley rat at 5 mg/kg, iv measured upto 24 hrs by LC/MS/MS analysis; format: ADME, organism-based; set-up: dose 5 mg/kg, time < 24 hr, route intravenous; conditions: in vivo
[23] = Tmax in Sprague-Dawley rat at 5 mg/kg, po measured upto 24 hrs by LC/MS/MS analysis; format: ADME, organism-based; conditions: in vivo
[24] = AUC in Sprague-Dawley rat at 5 mg/kg, po measured upto 24 hrs by LC/MS/MS analysis; format: ADME, organism-based; set-up: dose 5 mg/kg, time < 24 hr, route oral; conditions: in vivo
Cytochrome P450 2D6 = Cytochrome P450 2D6 (Homo sapiens, UniProt P10635); assay: Inhibition of human CYP2D6 using dextromethorphan as substrate by LC/MS/MS analysis; format: ADME
Sequence of Cytochrome P450 2D6 (P10635 whole entry): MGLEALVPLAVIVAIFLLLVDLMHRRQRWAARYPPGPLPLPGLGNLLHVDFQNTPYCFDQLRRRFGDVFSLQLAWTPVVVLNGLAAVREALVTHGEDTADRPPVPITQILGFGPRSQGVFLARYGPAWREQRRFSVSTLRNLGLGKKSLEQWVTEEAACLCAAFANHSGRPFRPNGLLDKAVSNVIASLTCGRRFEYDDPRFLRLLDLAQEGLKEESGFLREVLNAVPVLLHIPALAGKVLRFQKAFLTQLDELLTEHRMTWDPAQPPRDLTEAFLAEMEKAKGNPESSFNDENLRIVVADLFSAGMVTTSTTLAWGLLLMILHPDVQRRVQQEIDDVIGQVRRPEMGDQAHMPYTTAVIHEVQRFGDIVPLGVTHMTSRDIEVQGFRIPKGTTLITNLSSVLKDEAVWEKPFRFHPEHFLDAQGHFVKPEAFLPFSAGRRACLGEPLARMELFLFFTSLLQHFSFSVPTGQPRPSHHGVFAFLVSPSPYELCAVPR

EC50 (Hepatitis B virus [2]): 0.97 µM
SMILES: O=C(Nc1cc(F)c(F)c(F)c1)c1cccc(S(=O)(=O)N2CCC(O)CC2)c1
CC50 at 65 h [1]: 77.7 µM

EC50 (Hepatitis B virus [2]): > 3.3 µM
SMILES: O=C(Nc1cc(F)c(F)c(F)c1)c1cc(Br)c(F)c(S(=O)(=O)N2CCC(O)CC2)c1
CC50 at 65 h [1]: > 100 µM

EC50 (Hepatitis B virus [2]): 0.72 µM
SMILES: CSc1ccc(S(=O)(=O)N2CCC(O)CC2)cc1C(=O)Nc1cc(F)c(F)c(F)c1
CC50 at 65 h [1]: > 100 µM

EC50 (Hepatitis B virus [2]): > 3.3 µM
SMILES: COc1ccc(S(=O)(=O)N2CCC(O)CC2)cc1C(=O)Nc1cc(F)c(F)c(F)c1
CC50 at 65 h [1]: > 100 µM

EC50 (Hepatitis B virus [2]): > 3.3 µM
SMILES: CNc1cc(F)c(S(=O)(=O)N2CCC(O)CC2)cc1C(=O)Nc1cc(F)c(F)c(F)c1
CC50 at 65 h [1]: > 100 µM

EC50 (Hepatitis B virus [3]): 0.0064 µM
EC50 (Hepatitis B virus [2]): 0.36 µM
SMILES: O=C(Nc1cc(F)c(F)c(F)c1)c1ccc(F)c(S(=O)(=O)N2CCC(O)CC2)c1
CC50 at 65 h [1]: 57.7 µM

EC50 (Hepatitis B virus [2]): 0.24 µM
SMILES: Nc1ccc(S(=O)(=O)N2CCC(O)CC2)cc1C(=O)Nc1cc(F)c(F)c(F)c1
CC50 at 65 h [1]: 76.9 µM

EC50 (Hepatitis B virus [2]): > 3.3 µM
SMILES: O=C(Nc1cc(F)c(F)c(F)c1)c1cc(S(=O)(=O)N2CCC(O)CC2)ccc1O
CC50 at 65 h [1]: > 100 µM

half-life [4]: 3.44 h
half-life [5]: 6.67 h
clearance [6]: 13.5 mL/min/kg
IC50 (Cytochrome P450 3A4): 27.8 µM
remaining at 0.5 h, 1 µM [8]: 49.2%
IC50 (Cytochrome P450 2C9): 17 µM
AUC(0-t) at 24 h [10]: 5050 ng·h/mL
remaining at 0.5 h, 1 µM [11]: 50.2%
IC50 (Cytochrome P450 2C19): 23.1 µM
Vd [12]: 2.95 L/kg
bioavailability [13]: 80.2%
fraction unbound at 4 h, 5 µM [14]: 0.0073
half-life at 1 µM [15]: 0.481 h
remaining at 4 h, 5 µM [16]: 71.9%
remaining at 4 h, 5 µM [18]: 90.1%
remaining at 4 h, 5 µM [19]: 98.7%
AUC(0-t) at 24 h [20]: 6300 ng·h/mL
IC50 (Cytochrome P450 1A2): 81.1 µM
Cmax [21]: 940 ng/mL
AUC at 24 h [22]: 6420 ng·h/mL
EC50 (Hepatitis B virus [2]): 0.044 µM
Tmax [23]: 1.58 h
AUC at 24 h [24]: 5090 ng·h/mL
IC50 (Cytochrome P450 2D6): 32.6 µM
SMILES: Nc1cc(F)c(S(=O)(=O)N2CCC(O)CC2)cc1C(=O)Nc1cc(F)c(F)c(F)c1
IC50 [7]: 10.9 µM
CC50 at 65 h [1]: 48.9 µM
Ratio EC50 (Hepatitis B virus [9]): 9
IC50 [17]: 8.78 µM

EC50 (Hepatitis B virus [2]): > 3.3 µM
SMILES: CN(C)c1ccc(S(=O)(=O)N2CCC(O)CC2)cc1C(=O)Nc1cc(F)c(F)c(F)c1
CC50 at 65 h [1]: > 100 µM

EC50 (Hepatitis B virus [2]): 0.28 µM
SMILES: Nc1cc(C(=O)Nc2cc(F)c(F)c(F)c2)cc(S(=O)(=O)N2CCC(O)CC2)c1F
CC50 at 65 h [1]: 87.9 µM

EC50 (Hepatitis B virus [2]): > 3.3 µM
SMILES: O=C(Nc1cc(F)c(F)c(F)c1)c1cc(S(=O)(=O)N2CCC(O)CC2)cc2cc[nH]c12
CC50 at 65 h [1]: > 100 µM
